Measurements published in ChEMBL document CHEMBL3132786, “Cytotoxic, immunomodulatory, antimycotic, and antiviral activities of semisynthetic 14-hydroxyabietane derivatives and triptoquinone C-4 epimers” (Medchemcomm, 2013).
≈ marks a conversion by molar mass, not a printed value. Calls of active or inactive are those of the source. The calls are words filed in the database; no cut-off is given here.

Columns and labels:
Aspergillus niger [1] = test: Antifungal activity against Aspergillus niger up to 100 ug/ml after 48 hrs by broth dilution method; type: functional, organism-based
Human alphaherpesvirus 1 = test: Antiviral activity against Herpes simplex virus type 1 infected in HeLa cells assessed as reduction in viral replication after 48 hrs; type: functional, organism-based
HeLa = test: Cytotoxicity against human HeLa cells after 48 hrs by MTT assay; type: functional, cell-based
[2] = Selectivity ratio of IC50 for african green monkey Vero cells to IC50 for human Jurkat cells; type: ADME, cell-based; conditions: Vero cells versus Jurkat cells, read-out: Ratio IC50
Jurkat [3] = test: Cytotoxicity against human Jurkat cells after 48 hrs by MTT assay; type: functional, cell-based
Aspergillus flavus = test: Antifungal activity against Aspergillus flavus up to 100 ug/ml after 48 hrs by broth dilution method; type: functional, organism-based
Aspergillus terreus [4] = test: Antifungal activity against Aspergillus terreus up to 100 ug/ml after 48 hrs by broth dilution method; type: functional, organism-based
[5] = Selectivity ratio of IC50 for african green monkey Vero cells to IC50 for human HeLa cells; type: ADME, cell-based; conditions: Vero cells versus HeLa cells, read-out: Ratio IC50
Vero = test: Cytotoxicity against african green monkey Vero cells after 48 hrs by MTT assay; type: cell-based; conditions: chlorocebus sabaeus
Aspergillus fumigatus [6] = test: Antifungal activity against Aspergillus fumigatus up to 100 ug/ml after 48 hrs by broth dilution method; type: functional, organism-based
Jurkat [7] = test: Induction of apoptosis in human Jurkat cells assessed as DNA damage at 14 ug/ml after 15 hrs by TUNEL assay; type: functional
Monocyte [8] = test: Reduction in LPS-induced IL-1beta production in human monocytes at 5 to 15 ug/ml pretreated before LPS addition after 24 hrs by cytometric bead array method; type: functional, cell-based
PBMC [9] = test: Effect on membrane integrity in human PBMCs; type: ADME, cell-based
[10] = Antiproliferative activity against PHA-stimulated human CD4+ T cells at 14 ug/ml after 72 hrs by CFSE fluorescence staining-based flow cytometry; conditions: t-cell
Monocyte [11] = test: Reduction in LPS-induced TNF-alpha production in human monocytes at 5 to 15 ug/ml pretreated before LPS addition after 24 hrs by cytometric bead array method; type: functional, cell-based
[12] = Antiproliferative activity against PHA-stimulated human CD4+ T cells at 7 to 14 ug/ml after 72 hrs by CFSE fluorescence staining-based flow cytometry; conditions: t-cell
Jurkat [13] = test: Reduction in membrane potential in human Jurkat cells at 14 ug/ml after 24 hrs using DiOC6(3) by flow cytometry; type: functional; parameters: scale not given: the % may be the effect or the level left
Jurkat [14] = test: Induction of apoptosis in human Jurkat cells assessed as apoptotic cells at 14 ug/ml after 15 hrs by annexin V/PI-based flow cytometry; type: functional
Jurkat [15] = test: Cell cycle arrest in human Jurkat cells assessed as accumulation at G2/M phase at 14 ug/ml after 15 hrs by flow cytometry; type: functional
PBMC [16] = test: Antiproliferative activity against PHA-stimulated human PBMCs assessed as CD69 expression pretreated at 1 to 14 ug/ml before PHA stimulation measured after 12 hrs by flow cytometry; type: cell-based
Monocyte [17] = test: Inhibition of differentiation of LPS-stimulated human monocytes assessed as reduction in expression of HLA-DR at 5 to 15 ug/ml after 120 hrs by fluorescence assay; type: functional, cell-based
Jurkat [18] = test: Cell cycle arrest in human Jurkat cells assessed as decrease in G0/G1 phase at 14 ug/ml after 15 to 24 hrs by flow cytometry; type: functional, cell-based
PBMC [19] = test: Reduction in membrane potential in human PBMCs at 14 ug/ml after 15 hrs using DiOC6(3) by flow cytometry; type: ADME, cell-based; parameters: scale not given: the % may be the effect or the level left
Monocyte [20] = test: Reduction in IL-10 production in human monocytes at 5 to 15 ug/ml after 24 hrs by cytometric bead array method; type: functional, cell-based
Jurkat [21] = test: Reduction in membrane potential in human Jurkat cells at 14 ug/ml after 15 hrs using DiOC6(3) by flow cytometry; type: functional; parameters: scale not given: the % may be the effect or the level left
Jurkat [22] = test: Cell cycle arrest in human Jurkat cells assessed as hypoploidy at 14 ug/ml after 24 hrs by flow cytometry; type: functional
Jurkat [23] = test: Cell cycle arrest in human Jurkat cells assessed as hypoploidy at 14 ug/ml after 15 hrs by flow cytometry; type: functional
PBMC [24] = test: Induction of apoptosis in human PBMCs assessed as apoptotic cells at 14 ug/ml after 15 hrs by annexin V/PI-based flow cytometry; type: cell-based
Monocyte [25] = test: Reduction in LPS-induced IL-10 production in human monocytes at 5 to 15 ug/ml pretreated before LPS addition after 24 hrs by cytometric bead array method; type: functional, cell-based
[26] = Antiproliferative activity against PHA-stimulated human CD8+ T cells at 7 to 14 ug/ml after 72 hrs by CFSE fluorescence staining-based flow cytometry; conditions: t-cell
Jurkat [27] = test: Effect on membrane integrity in human Jurkat cells; type: functional, cell-based
Jurkat [28] = test: Reduction in membrane potential in human Jurkat cells at 7 ug/ml after 15 to 24 hrs using DiOC6(3) by flow cytometry; type: functional, cell-based
PBMC [29] = test: Induction of apoptosis in human PBMCs assessed as apoptotic cells at 14 ug/ml after 24 hrs by annexin V/PI-based flow cytometry; type: cell-based
PBMC [30] = test: Antiproliferative activity against human PBMCs at 14 ug/ml after 48 hrs by CFSE fluorescence staining-based flow cytometry; type: cell-based
PBMC [31] = test: Effect on cell cycle distribution in human PBMCs at 14 ug/ml after 15 to 24 hrs by flow cytometry; type: ADME, cell-based
Jurkat [32] = test: Induction of apoptosis in human Jurkat cells assessed as apoptotic cells at 14 ug/ml after 24 hrs by annexin V/PI-based flow cytometry; type: functional
[33] = Antiproliferative activity against PHA-stimulated human CD8+ T cells at 14 ug/ml after 72 hrs by CFSE fluorescence staining-based flow cytometry; conditions: t-cell
Monocyte [34] = test: Reduction in IL-1beta production in human monocytes at 5 to 15 ug/ml after 24 hrs by cytometric bead array method; type: functional, cell-based
PBMC [35] = test: Antiproliferative activity against PHA-stimulated human PBMCs assessed as CD69 expression at 1 to 14 ug/ml treated post PHA stimulation measured after 12 hrs by flow cytometry; type: cell-based
Jurkat [36] = test: Cell cycle arrest in human Jurkat cells assessed as accumulation at G2/M phase at 14 ug/ml after 24 hrs by flow cytometry; type: functional
PBMC [37] = test: Reduction in membrane potential in human PBMCs at 14 ug/ml after 24 hrs using DiOC6(3) by flow cytometry; type: ADME, cell-based; parameters: scale not given: the % may be the effect or the level left
PBMC [38] = test: Effect on cell cycle distribution in human PBMCs assessed as hypoploidy at 14 ug/ml after 15 to 24 hrs by flow cytometry; type: ADME, cell-based
Monocyte [39] = test: Reduction in TNF-alpha production in human monocytes at 5 to 15 ug/ml after 24 hrs by cytometric bead array method; type: functional, cell-based
Jurkat [40] = test: Induction of apoptosis in human Jurkat cells assessed as DNA damage at 14 ug/ml after 24 hrs by TUNEL assay; type: functional
PBMC [41] = test: Antiproliferative activity against human PBMCs at 7 ug/ml after 48 hrs by CFSE fluorescence staining-based flow cytometry; type: cell-based
PBMC [42] = test: Reduction in membrane potential in human PBMCs at 7 to 14 ug/ml after 15 to 24 hrs using DiOC6(3) by flow cytometry; type: ADME, cell-based
PBMC [43] = test: Antiproliferative activity against human PBMCs at 7 to 14 ug/ml after 48 hrs by CFSE fluorescence staining-based flow cytometry; type: cell-based
Aspergillus terreus [44] = test: Antifungal activity against Aspergillus terreus after 48 hrs by broth dilution method; type: functional
Aspergillus fumigatus [45] = test: Antifungal activity against Aspergillus fumigatus after 48 hrs by broth dilution method; type: functional
Aspergillus niger [46] = test: Antifungal activity against Aspergillus niger after 48 hrs by broth dilution method; type: functional

COC(=O)[C@]1(C)CCC[C@]2(C)c3ccc(C(C)C)c(O)c3CC[C@@H]12
Activity (Aspergillus niger [1]): inactive | Activity (Human alphaherpesvirus 1): inactive | inhibition (HeLa): Dose-dependent effect | selectivity ratio [2]: 2.59 | inhibition (Jurkat [3]): Dose-dependent effect | Activity (Aspergillus flavus): inactive | Activity (Aspergillus terreus [4]): inactive | selectivity ratio [5]: 1.9 | inhibition (INH) (Vero): Dose-dependent effect | Activity (Aspergillus fumigatus [6]): inactive

COC(=O)[C@]1(C)CCC[C@]2(C)C3=C(CC[C@@H]12)C(=O)C(C(C)C)=CC3=O
Activity (Aspergillus niger [1]): inactive | Activity (Human alphaherpesvirus 1): inactive | inhibition (HeLa): Dose-dependent effect | selectivity ratio [2]: 2.34 | inhibition (Jurkat [3]): Dose-dependent effect | Activity (Aspergillus flavus): inactive | Activity (Aspergillus terreus [4]): inactive | selectivity ratio [5]: 1.23 | inhibition (INH) (Vero): Dose-dependent effect | Activity (Aspergillus fumigatus [6]): inactive

CC(C)C1=CC(=O)C2=C(CC[C@H]3[C@](C)(CO)CCC[C@]23C)C1=O
Activity (Jurkat [7]): 10% | Activity (Monocyte [8]): Active | Activity (PBMC [9]): Non-toxic | Activity [10]: 88% | Activity (Aspergillus niger [1]): inactive | Activity (Monocyte [11]): Active | Activity [12]: Non-toxic | Activity (Jurkat [13]): 25% | Activity (Jurkat [14]): 26% | Activity (Jurkat [15]): 13% | Activity (Human alphaherpesvirus 1): inactive | Activity (PBMC [16]): Non-toxic | Activity (Monocyte [17]): Active | Activity (Jurkat [18]): Active | Activity (PBMC [19]): 20% | inhibition (HeLa): Dose-dependent effect | Activity (Monocyte [20]): inactive | Activity (Jurkat [21]): 15% | Activity (Jurkat [22]): 35% | Activity (Jurkat [23]): 12% | Activity (PBMC [24]): 75% | Activity (Monocyte [25]): Active | selectivity ratio [2]: 5.46 | inhibition (Jurkat [3]): Dose-dependent effect | Activity [26]: Non-toxic | Activity (Jurkat [27]): inactive | Activity (Aspergillus flavus): inactive | Activity (Jurkat [28]): inactive | Activity (PBMC [29]): 90% | Activity (PBMC [30]): 82% | Activity (PBMC [31]): Non-toxic | Activity (Jurkat [32]): 86% | Activity [33]: 77% | Activity (Monocyte [34]): inactive | Activity (PBMC [35]): Non-toxic | Activity (Jurkat [36]): 15% | Activity (PBMC [37]): 90% | Activity (Aspergillus terreus [4]): inactive | selectivity ratio [5]: 1 | Activity (PBMC [38]): Non-toxic | inhibition (INH) (Vero): Dose-dependent effect | Activity (Aspergillus fumigatus [6]): inactive | Activity (Monocyte [39]): inactive | Activity (Jurkat [40]): 35% | Activity (PBMC [41]): 77%

CC(C)C1=CC(=O)C2=C(CC[C@H]3[C@](C)(C(=O)O)CCC[C@]23C)C1=O
Activity (Jurkat [7]): inactive | Activity (Monocyte [8]): Active | Activity (PBMC [9]): Non-toxic | Activity (Aspergillus niger [1]): inactive | Activity (Monocyte [11]): Active | Activity (PBMC [42]): Non-toxic | Activity (PBMC [43]): Non-toxic | Activity [12]: Non-toxic | Activity (Jurkat [13]): inactive | Activity (Jurkat [14]): Active | Activity (Jurkat [15]): inactive | Activity (Human alphaherpesvirus 1): inactive | Activity (PBMC [16]): Non-toxic | Activity (Monocyte [17]): Active | Activity (Jurkat [18]): inactive | inhibition (HeLa): Dose-dependent effect | Activity (Monocyte [20]): inactive | Activity (Jurkat [21]): inactive | Activity (Jurkat [22]): inactive | Activity (Jurkat [23]): inactive | Activity (PBMC [24]): Toxic | Activity (Monocyte [25]): Active | selectivity ratio [2]: 8.96 | inhibition (Jurkat [3]): Dose-dependent effect | Activity [26]: Non-toxic | Activity (Jurkat [27]): inactive | Activity (Aspergillus flavus): inactive | Activity (Jurkat [28]): inactive | Activity (PBMC [29]): Toxic | Activity (PBMC [31]): Non-toxic | Activity (Jurkat [32]): Active | Activity (Monocyte [34]): inactive | Activity (PBMC [35]): Non-toxic | Activity (Jurkat [36]): inactive | Activity (Aspergillus terreus [4]): inactive | selectivity ratio [5]: 4.74 | Activity (PBMC [38]): Non-toxic | inhibition (INH) (Vero): Dose-dependent effect | Activity (Aspergillus fumigatus [6]): inactive | Activity (Monocyte [39]): inactive | Activity (Jurkat [40]): inactive

CC(C)c1ccc2c(c1O)CC[C@H]1[C@](C)(C(=O)O)CCC[C@]21C
Activity (Aspergillus niger [1]): inactive | Activity (Human alphaherpesvirus 1): inactive | inhibition (HeLa): Dose-dependent effect | selectivity ratio [2]: 3.09 | inhibition (Jurkat [3]): Dose-dependent effect | Activity (Aspergillus flavus): inactive | Activity (Aspergillus terreus [4]): inactive | selectivity ratio [5]: 0.77 | inhibition (INH) (Vero): Dose-dependent effect | Activity (Aspergillus fumigatus [6]): inactive

CC(C)c1ccc2c(c1O)CC[C@H]1[C@](C)(CO)CCC[C@]21C
MIC (Aspergillus terreus [44]): 25 µg/mL (≈ 82.7 µM) | Activity (Aspergillus niger [1]): inactive | Activity (Human alphaherpesvirus 1): inactive | inhibition (HeLa): Dose-dependent effect | MIC (Aspergillus fumigatus [45]): 25 µg/mL (≈ 82.7 µM) | selectivity ratio [2]: 2.3 | inhibition (Jurkat [3]): Dose-dependent effect | Activity (Aspergillus flavus): inactive | MIC (Aspergillus niger [46]): 50 µg/mL (≈ 165 µM) | Activity (Aspergillus terreus [4]): inactive | selectivity ratio [5]: 0.71 | inhibition (INH) (Vero): Dose-dependent effect | Activity (Aspergillus fumigatus [6]): inactive
